In test [1] the test system is cellular PLA2. Kind of test: Inhibition of Cellular Phospholipase A2 (A23187-stimulated macrophages). The test is classed as cell-based. The settings on record: 5 μM; rat peritoneal macrophages, A-23187 stimulated. The method, then:
II. Inhibition of Cellular Phospholipase A2. - % Inhibition of Cellular PLA2
Resident macrophages were obtained from rats by peritoneal lavage with phosphate buffered saline minus Ca2^++ and Mg2^++ (PBS). Cells were washed 3 times with PBS and resuspended in Dulbecco's Modified Eagle's Medium (GiBco) containing L-glutamine low D-glucose (1000 mg/L), and sodium pyruvate (110 mg/L), supplemented with 10% fetal calf serum. Cells were counted on a Coulter ZBI cell counter and then resuspended to a concentration of 6×10^6 cells/1.5 ml. The cell suspension (1.5 ml culture dishes (35 mm) and the cells were allowed to adhere to the dishes for 90 minutes at 37° C. Dishes were washed 3 times with PBS to remove non-adherent cells. [^14 C]arachidonic acid ([^14 C]-AA, approximately […], were added to the cells (1 uCi/dish) and allowed to incorporate for 120 minutes. Medium containing unincorporated [^14 C]-AA was removed and the cell layer was again washed 3 times with PBS. Inhibitors were dissolved in dimethylsulfoxide (DMSO) and added directly to the macrophages in Hank's Balanced Salt Solution (GiBco) phosphate-buffered, pH 7.4) to obtain the desired final concentration. Cells were incubated with drug or DMSO for 30 minutes at 37° C. and were then stimulated with calcium-ionophore A-23187 (0.75 uM) for 20 minutes. The extracellular medium was removed and the [^14 C] radioactivity released into this medium from AA metabolism was measured by liquid scintillation spectroscopy. The amounts of LTB4 and PGE2 were measured in the extracellular medium by radio immunoassay with specific antisera. The effects of inhibitor were measured as percent inhibition of A23187- stimulated AA metabolite release (^14 C release, PGE2 and LTB4 production) (control) which were calculated from the formula: [formula] IC50 's were calculated as described in the HSF-PLA2 assay.

The target in test [2] is T1, PLA2 activity in human synovial fluid (HSF) (Homo sapiens, UniProt P14555).
T1 construct: Synovial fluid was obtained from patients with rheumatoid arthritis; from tissue; host or cells: cell-depleted synovial fluid of patients with rheumatoid arthritis
T1 sequence (P14555 21-144): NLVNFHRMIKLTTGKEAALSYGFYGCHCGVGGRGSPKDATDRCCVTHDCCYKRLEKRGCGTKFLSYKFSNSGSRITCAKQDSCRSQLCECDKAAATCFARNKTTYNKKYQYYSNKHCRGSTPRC
Kind of test: Phospholipase A2 (PLA2) enzymatic assay - % Inhibition of HSF-PLA2. The following applies: for inhibition at 5 µM: read-out: % Inhib. of HSF-PLA2 at 5 μM. The test is classed as biochemical. The source says:
1, Phospholipase A2 (PLA2) enzymatic assay - % Inhibition of HSF-PLA2
PLA2 assay procedure described by Hope et al., Inflammation 14:543-559 (1.990) was utilized to measure the inhibitory activity of the invention (inhibitor) against PLA2 activity in human synovial fluid (HSF). Synovial fluid was obtained from patients with rheumatoid arthritis. The assay procedure measured the release of [1-^14 C]oleic acid from the sn-2 position of phospholipids in autoclaved Escherichia coli previously grown in media containing [1-^14 C]oleic acid. The standard assay reaction conditions included 1×10^9 Escherichia coil (10,000 dpm ^14 C), 0.15% (v/v) cell-depleted HSF, (which was equivalent to 66 μg protein/mL) 2 mM CaCl2, 150 mM NaCl, 50 mM sodium (N-[2-hydroxyethyl] piperazine-N'-[2-ethanesulfonate]) (HEPES) buffer (pH 7.3), 1% dimethyl sulfoxide (DMSO) and various concentrations of inhibitor in a total volume of 0.5 ml. Inhibitors were dissolved in DMSO and added. The reaction was initiated by addition of HSF, incubated for 30 min at 37° C. and then stopped by addition of 2.5 ml of chloroform/methanol (1:1.5, v/v). The total lipids were extracted by the method of Bligh, E. G., and Dyer, W. J, Can. J. Biochem. Physiol. 37:911-917 (1959) by the further addition of 0.5 mL of chloroform and 1 mL of water with mixing. The lipid extract was redissolved in chloroform/methanol (9:1, v/v) containing 10 ug of carrier oleic acid. The oleic acid was separated from phospholipids by thin layer chromatography using gel-impregnated glass fiber sheets (ITLC type SG sheets). The sheets were preactivated by heating at 110° C. for 30 min. The lipid extract was applied to the sheets and chromatographed for 6 minutes, using hexane/acetic acid (100:1, v/v). The positions on the sheet containing oleic acid and phospholipids were visualized by exposure to iodine vapor and located by comparison to standards. The oleic acid and phospholipid zones were cut from the sheets, shaken individually with 2 ml of ethanol/water (80:20, v/v) and 15 ml of Aquasol, then counted for [^14 C] radioactivity (dpm). PLA2 activity, expressed as percent hydrolysis, was calculated from the formula: [formula] and was corrected for nonenzymatic hydrolysis of the substrate. Percent inhibition due to the presence of drug was calculated from the formula: [formula]
When various concentrations of a Compound of Formula I were tested, the percent inhibition at each concentration was plotted as log concentration (abscissa) versus percent inhibition (ordinate) and the IC50 was determined from this plot.

Test [3] deals with carrageenan-induced paw edema in rats. Kind of test: Carrageenan-induced paw edema model of inflammation. The class given is in vivo. The settings on record: 2 hr, rat, read-out: Carrageenan ind. paw edema % Inhib. 2 hr; for inhibition in vivo at 20 mg/kg: 20 mg/Kg ip.

SMILES strings stand for the structures.

On to `CC(C)CCCC(C)CCn1c2c(c3cc(Oc4ccc(C(=O)O)o4)ccc31)CCCC2` (racemic) [Example 144, rac-5-[[1,2,3,4-tetrahydro-9-(3,7-dimethyloctyl)-9H-dibenzo[b,d]pyrrol-6-yl]oxy]-2-furancarboxylic acid], for which the “% Inhib. of cellular PLA2 at 5 μM” value in test [1] is reported as 87%. Besides, the inhibition at 5 µM in test [2] was determined as 78%. Further, the inhibition in vivo at 30 mg/kg in test [3] (30 mg/Kg ip) came out at 80%.

Consider `CCCCCCCCn1c2c(c3cc(Oc4ccc(C(=O)O)o4)ccc31)CCCC2c1cccc(OC)c1` (racemic) [Example 153, rac-5-[[1,2,3,4-tetrahydro-1-(3-methoxyphenyl)-9-octyl-9H-dibenzo[b,d]pyrrol-6-yl]oxy]-2-furancarboxylic acid], for which the “% Inhib. of cellular PLA2 at 5 μM” value in test [1] amounted to 74%. The same compound showed a concentration for half-maximal inhibition (IC50) in test [2] (human synovial fluid PLA2, 30 min at 37° C., pH 7.3) of 2400 nM. Besides, in test [2], the inhibition at 5 µM was found to be 63%.

In the case of `CCCCCCCCn1c2c(c3cc(/C=C/c4ccc(C(=O)O)o4)ccc31)C(C)(C)CC(C)(C)C2` [Example 46, (E)-5-[2-(1,2,3,4-tetrahydro-2,2,4,4-tetramethyl-9-octyl-9H-dibenzo[b,d]pyrrol-6-yl)ethenyl]-2-furancarboxylic acid], in test [1], the “% Inhib. of cellular PLA2 at 5 μM” value stood at 48%. The inhibition at 5 µM in test [2] amounted to 75%.

For the compound `CCCCCCCCn1c2c(c3cc(/C(C)=C/c4ccc(C(=O)O)o4)ccc31)CCCC2` [Example 47, (E)-5-[2-methyl-2-(1,2,3,4-tetrahydro-9-octyl-9H-dibenzo[b,d]pyrrol-6-yl)ethenyl]-2-furancarboxylic acid], the “% Inhib. of cellular PLA2 at 5 μM” value in test [1] was found to be 77%. For the same compound, the inhibition at 5 µM in test [2] worked out at 59%. Moreover, the inhibition in vivo at 20 mg/kg in test [3] worked out at 70%. Moreover, in test [3] (100 mg/Kg po), the inhibition in vivo at 100 mg/kg amounted to 49%.

Consider `CCCCCCCCn1c2c(c3cc(/C(C)=C/c4ccc(C(=O)O)o4)ccc31)CCCC2(C)C` [Example 48, (E)-5-[2-methyl-2-(1,2,3,4-tetrahydro-1,1-dimethyl-9-octyl-9H-dibenzo[b,d]-pyrrol-6yl)ethenyl]-2-furancarboxylic acid], for which the “% Inhib. of cellular PLA2 at 5 μM” value in test [1] is given as 62%. Moreover, the inhibition at 5 µM in test [2] turned out to be 75%. Also, in test [3] (10 mg/Kg ip), the inhibition in vivo at 10 mg/kg came out at 58%.

Take `CCCCCCCCn1c2c(c3cc(/C(C)=C/c4ccc(C(=O)O)o4)ccc31)C(C)(C)CC(C)(C)C2` [Example 49, (E)-5-[2-methyl-2-(1,2,3,4-tetrahydro-2,2,4,4-tetramethyl-9-octyl-9H-dibenzo[b,d]pyrrol-6yl)ethenyl]-2-furancarboxylic acid]: the “% Inhib. of cellular PLA2 at 5 μM” value in test [1] was 15%. In addition, in test [2], the inhibition at 5 µM amounted to 83%.

Consider `CCCCCCCCn1c2c(c3cc(/C=C(\C)c4ccc(C(=O)O)o4)ccc31)CCCC2` [Example 50, (E)-5-[1-methyl-2-(1,2,3,4-tetrahydro-9-octyl-9H-dibenzo[b,d]-pyrrol-6-yl)ethenyl]-2-furancarboxylic acid], for which the “% Inhib. of cellular PLA2 at 5 μM” value in test [1] is on record as 79%. Further, the inhibition at 5 µM in test [2] was determined as 47%. Besides, in test [3], the inhibition in vivo at 20 mg/kg was determined as 56%.

Consider `CCCCCCCCn1c2c(c3cc(Oc4ccc(C(=O)O)o4)ccc31)CC(C)(C)CC2` [Example 135, 5-[(1,2,3,4-tetrahydro-3,3-dimethyl-9-octyl-9H-dibenzo[b,d]pyrrol-6-yl)oxy]-2-furancarboxylic acid], for which the “% Inhib. of cellular PLA2 at 5 μM” value in test [1] is recorded as 90%. In test [2], the inhibition at 5 µM was found to be 66%.

Turning to `CCCCn1c2c(c3cc(Oc4ccc(C(=O)O)o4)ccc31)CCCC2` [Example 136, 5-[(1,2,3,4-tetrahydro-9-butyl-9H-dibenzo[b,d]pyrrol-6-yl)oxy]-2-furancarboxylic acid], the “% Inhib. of cellular PLA2 at 5 μM” value in test [1] came to 85%. Further, the inhibition at 5 µM in test [2] stood at 12%.

For `O=C(O)c1ccc(Oc2ccc3c(c2)c2c(n3Cc3ccc(Br)cc3)CCCC2)o1` [Example 137, 5-[[1,2,3,4-tetrahydro-9-(4-bromophenyl)methyl-9H-dibenzo[b,d]pyrrol-6-yl]oxy]-2-furancarboxylic acid], in test [1], the “% Inhib. of cellular PLA2 at 5 μM” value was 100%. Moreover, in test [2], the inhibition at 5 µM came out at 36%.

`Cn1c2c(c3cc(Oc4ccc(C(=O)O)o4)ccc31)CCCC2` [Example 138, 5-[(1,2,3,4-tetrahydro-9-methyl-9H-dibenzo[b,d]pyrrol-6-yl)oxy]-2-furancarboxylic acid]: the “% Inhib. of cellular PLA2 at 5 μM” value in test [1] was 13%. In addition, in test [2], the inhibition at 5 µM was found to be 39%.

Regarding `CCCCCCCn1c2c(c3cc(Oc4ccc(C(=O)O)o4)ccc31)CCCC2` [Example 140, 5-[(1,2,3,4-tetrahydro-9-heptyl-9H-dibenzo[b,d]pyrrol-6-yl)oxy]-2-furancarboxylic acid], the “% Inhib. of cellular PLA2 at 5 μM” value in test [1] turned out to be 97%. Further, the inhibition at 5 µM in test [2] turned out to be 55%.

For the compound `CCCCCCCCCCCCn1c2c(c3cc(Oc4ccc(C(=O)O)o4)ccc31)CCCC2` [Example 141, 5-[(1,2,3,4-tetrahydro-9-dodecyl-9H-dibenzo[b,d]pyrrol-6-yl)oxy]-2-furancarboxylic acid], the “% Inhib. of cellular PLA2 at 5 μM” value in test [1] was found to be 74%. The inhibition at 5 µM in test [2] turned out to be 66%.

With `CCCCCCCc1ccc(Cn2c3c(c4cc(Oc5ccc(C(=O)O)o5)ccc42)CCCC3)cc1` [Example 143, 5-[[1,2,3,4-tetrahydro-9-(4-heptylphenyl)methyl-9H-dibenzo[b,d]pyrrol-6-yl]oxy]-2-furancarboxylic acid], the “% Inhib. of cellular PLA2 at 5 μM” value in test [1] worked out at 65%. Moreover, the inhibition at 5 µM in test [2] worked out at 76%.

Regarding `O=C(O)c1ccc(Oc2ccc3c(c2)c2c(n3Cc3ccccc3F)CCCC2)o1` [Example 148, 5-[[1,2,3,4-tetrahydro-9-[(2-fluorophenyl)methyl]-9H-dibenzo[b,d]pyrrol-6-yl]oxy]-2-furancarboxylic acid], the “% Inhib. of cellular PLA2 at 5 μM” value in test [1] is reported as 97%. Further, the inhibition at 5 µM in test [2] stood at 65%.

As to `Cc1ccc(Cn2c3c(c4cc(Oc5ccc(C(=O)O)o5)ccc42)CCCC3)cc1` [Example 151, 5-[[1,2,3,4-tetrahydro-9-[(4-methylphenyl)methyl]-9H-dibenzo[b,d]pyrrol-6-yl]oxy]-2-furancarboxylic acid], the “% Inhib. of cellular PLA2 at 5 μM” value in test [1] is 93%. The inhibition at 5 µM in test [2] was 72%.

Consider `Cc1cc(C)c(Cn2c3c(c4cc(Oc5ccc(C(=O)O)o5)ccc42)CCCC3)c(C)c1` [Example 152, 5-[[1,2,3,4-tetrahydro-9-[(2,4,6-trimethylphenyl)methyl]-9H-dibenzo[b,d]pyrrol-6-yl]oxy]-2-furancarboxylic acid], for which, in test [1], the “% Inhib. of cellular PLA2 at 5 μM” value was 89%. Moreover, in test [2] (10 μM (footnote a), read-out: % Inhib. of HSF-PLA2 (a: % Inhibition at 10 μM)), the inhibition at 10 µM came to 72%.
